Consider two compounds from patent publication US4812447A, “Method for the treatment of nervous system degeneration” (City of Hope, priority 1986, dated 1989).

Counter-ions that a name gives are not always drawn.

Series [1] deals with mice. As to conditions: orally; cited from earlier work.
The subject of series [2] is human complement system, C4 component. As to conditions: Koo, et al., Klin. Wochnschr, 61, 715 (1983); cited from earlier work.
Series [3] has as its system mice. As to conditions: cited from earlier work.
A further series concerns NF^+ neurons. Description: Example 3: fetal mouse brain cell culture, neurofilament (NF) immunofluorescence of neurons. The series is classed as cell-based, Swiss mouse. Conditions: for survival of neurons, outgrowth of neuritic processes, establishment of connections between neurons: low concentrations, explants of fetal mouse brain in culture; for optimal concentration for effects on neurons: numbers, processes, connections and staining of NF^+ neurons. The protocol:
(§1) Cultures were prepared from finely chopped, mechanically dissociated brains from 14-day old Swiss mouse embryos. Cells were plated at a density of 3×10^5 cells/cm^2 on poly-D-lysine coated glass cover slips and maintained at 37° C. in an atmosphere of 5% CO2, 80% humidity in Dulbecco-modified ME medium supplemented with 10% fetal calf serum and containing penicillin. The medium was first changed at 5 days of culture, at which time DHEA and DHEAS was added in concentrations ranging from 10^-4 M to 10^-8 M to the experimental cultures, while the control cultures received only normal medium. The supplemented and control media were changed at 7 days and on the 9th day the cultures were fixed and immunostained by the indirect immunofluorescent method of Coons with rabbit antisera to neurofilament protein, specific for neurons, and to glial fibrillary acidic protein, which is specific for glial cells. Neuronal and glial cells identified by the above procedures subsequently will be designated as NF^+ and GFAP^+ cells.
(§2) Briefly, cultures were fixed by successive incubation at room temperature with 3.7% formaldehyde and 3.7% formaldehyde containing 0.2% Triton X-100, 10 min each, and incubation at 4° C. with acetone 50%, with acetone 100% and acetone 50%--2 min each. Incubation with the above-mentioned sera anti-cell markers appropriately diluted (1/20-1/30) was carried out at room temperature for 30 min.

For series [4] the following is noted: oral; cited from earlier work.
Another series has as its system rats. As to conditions: orally; cited from earlier work.
Series [5] has as its system astrocytes (GFAP^+ cells). As to the kind of experiment: Example 3: fetal mouse brain cell culture, GFAP immunofluorescence of astrocytes / glial cells. It is filed as cell-based, Swiss mouse. As to conditions: for brilliance of astrocyte staining (GFAP per unit cell surface) / extent of astrocyte fiber extension / numbers of astrocytes: vs untreated cultures, GFAP staining; for development and maturation of glial processes: low concentrations, explants of fetal mouse brain in culture. The procedure: as §1, §2

The next series has as its system SDAT patients. As to the kind of experiment: Example 1: treatment of SDAT patients over 75 years old with DHEAS. The series is classed as in vivo, human. As to conditions: 500 mg three times per day for two months. The procedure:
Four patients over 75 years old, suffering from SDAT and having well-documented, progressive SDAT symptoms, are selected. Two of the patients are given 500 mg of DHEAS three times per day for two months. The other two are given a placebo.

`C[C@]12CC[C@H](O)CC1=CC[C@@H]1[C@@H]2CC[C@]2(C)C(=O)CC[C@@H]12` [DHEA, dehydroepiandrosterone]: in the series on mice [1], the LD50 entry is “greater than 10,000 mg/kg”. The “effect on human complement system, in particular C4 component” value in series [2] is reported as “known to effect the human complement system”. In addition, in the series with mice [3], the “incidence of breast cancer” value is “reduce the incidence of breast cancer” and the obesity result is “reduce obesity”. In addition, in the series with mice [3] (prolonged administration), the “apparent age after prolonged administration” value is “appear to be younger”. In addition, in the series on NF^+ neurons (10^-5 M-10^-8 M), the “connections between neurons and between neuronal clusters” value was “Numerous connections appeared to be formed”; the neuronal clusters result is listed as “greatly enlarged neuronal clusters”; the “processes of NF^+ neurons” value was “greatly extended, thickened, and intertwined”. Further, in the series on NF^+ neurons (10^-5 M-10^-8 M, by comparison with controls, fixed on 9th day), the “numbers of NF^+ neurons” value is reported as “remarkable increases”. Moreover, in the series with NF^+ neurons (10^-5 M-10^-8 M, in contrast to dull signal in controls), the “brilliance of fluorescence of neurons and their processes (NF protein content)” value is on record as “in marked contrast to the rather dull fluorescent signal observed in the controls”. Also, the “size of NF^+ neurons” value in the series on NF^+ neurons (experimental cultures vs controls) is given as “larger than those seen in the controls”. Also, in the series on NF^+ neurons, the “survival of neurons, outgrowth of neuritic processes, establishment of connections between neurons” value is recorded as “remarkable effects in enhancing the survival of neurons” and the “optimal concentration for effects on neurons” value is listed as 10^-7 M. Moreover, the “absorption in the gut” value in series [4] was “readily absorbed in the gut”. Moreover, the LD50 result in the series on rats is “greater than 10,000 mg/kg”. Besides, in series [5], the “brilliance of astrocyte staining (GFAP per unit cell surface)” value is given as “remarkable increase”; the “extent of astrocyte fiber extension” value was “remarkable increase”; the numbers of astrocytes entry is given as “remarkable increase”; the “development and maturation of glial processes” value is given as “enhanced greatly”.
Turning to `C[C@]12CC[C@H](OS(=O)(=O)O)CC1=CC[C@@H]1[C@@H]2CC[C@]2(C)C(=O)CC[C@@H]12` [DHEAS, dehydroepiandrosterone sulfate], the LD50 result in the series on mice [1] was “greater than 10,000 mg/kg”. Besides, the “effect on human complement system, in particular C4 component” value in series [2] is “known to effect the human complement system”. In the series with mice [3], the “incidence of breast cancer” value is “reduce the incidence of breast cancer” and the obesity result is on record as “reduce obesity”. For the same compound, the “effects on NF^+ neurons compared with those of DHEA” value in the series with NF^+ neurons (10^-4 M to 10^-8 M added) is reported as “Effects similar to those above”. In the series on NF^+ neurons, the “survival of neurons, outgrowth of neuritic processes, establishment of connections between neurons” value is “remarkable effects in enhancing the survival of neurons” and the “optimal concentration for effects on neurons” value was 10^-8 M. In the series with SDAT patients (2 patients vs 2 placebo), the cognitive ability entry is listed as “significant improvements”, the memory result is given as “significant improvements” and the speech result was “significant improvements”. Further, in the series on SDAT patients (placebo patients show continuing deterioration), the “signs of further SDAT-type deterioration” value was “No signs of further SDAT-type deterioration”. Moreover, the “absorption in the gut” value in series [4] is recorded as “readily absorbed in the gut”. The LD50 entry in the series with rats is “greater than 10,000 mg/kg”. Further, in series [5], the “brilliance of astrocyte staining (GFAP per unit cell surface)” value is given as “remarkable increase”; the “extent of astrocyte fiber extension” value is “remarkable increase”; the numbers of astrocytes result is recorded as “remarkable increase”; the “development and maturation of glial processes” value is listed as “enhanced greatly”.
